From patent US4200650A, “2-Amino-cyclopent-1-ene-1-thiocarboxylic acid-disulfides to treat noradrenergic malfunctions” (Richter Gedeon Vegyeszeti Gyar Rt., priority 1976, dated 1980)

How the values were obtained:
[1] = test system: dopamine-β-hydroxylase; assay: Determination of the noradrenaline content of heart; type: in vivo, male Wistar rats; conditions: i.p.
Experimental: (§1) The dopamine-β-hydroxylase inhibiting effects of the new compounds according to the invention were examined by the following tests:
(§2) The tests were performed on male Wistar rats weighing 150 to 200 g. The dopamine-β-hydroxylase inhibiting effects of the compounds were evaluated by determining the change of noradrenaline, dopamine and adrenaline levels of the cerebrum, heart, spleen and adrenal gland. The serotonine and 5-hydroxy-indolylacetic acid levels of the cerebrum were also determined. The measurements were performed as follows:
(§3) The animals were decapitated, the cerebrum, heart, spleen and adrenal gland were removed quickly, and the organs were frozen by placing them onto a metal sheet cooled with dry ice. The frozen organs were stored for maximum one night at -20° C.
(§4) Determination of the noradrenaline content of heart and spleen
(§5) The organs were weighed in frozen state and then homogenized in 5.0 ml of 0.4 n perchloric acid containing 0.05% of EDTA-Naa and 0.1% of Na2 S2 O5. The homogenized mixtures were centrifuged as described above for the treatment of adrenal gland, the supernatants were decanted, and the pH was adjusted to 8.0±0.1 with a 0.1 molar tris buffer containing 20 g/l of NaOH and 25 g/l of EDTA-Na2. 100 mg of prepared Al2 O3 (Anton et al.: J. Pharm. Ther. 138, 360/1962/) were added to the samples, and the mixtures were shaken mechanically for 20 minutes. Thereafter Al2 O3 was washed with 2×10 ml of distilled water, and noradrenaline was eluted with 1.0 ml of 0.05 n perchloric acid. 0.5 ml samples of the eluate were applied for the determination of noradrenaline. Noradrenaline was determined according to the method of Shellenberger et al. (Anal. Biochem. 39, 356/1971/), with the following modifications of the basic procedure: 0.5 ml of 0.1 molar Na-K-phosphate buffer, containing 9 g/l of EDTA-Na2, were added to 0.5 ml of the eluate, and the catecholamines (noradrenaline in the examination of heart and spleen and noradrenaline and dopamine in the examination of the cerebrum) were oxidized with 0.1 ml of a 0.1 n iodine solution in 5% potassium iodide. After exactly 2 minutes oxidation was stopped by adding 0.25 ml of a 2.5% sodium sulfite solution in 4.4 n aqueous sodium hydroxide to the mixture. 2 minutes after the introduction of the alkaline sulfite solution 0.2 ml of concentrated acetic acid were added to the samples, upon which the pH decreased to 4.4 to 4.5 Thereafter the samples were placed for 5 minutes into a drying oven heated to 100° C., and then the samples were cooled with ice water. The fluorescency of noradrenaline was measured with an OPTON spectrophotometer at wavelengths of 380 nm (excitation) and 490 nm (emission).
(§6) In the tests disulfiram, 2,2-dipyridyl, bis(1-methyl-4-homopiperazinyl-thriocaronyl)-disulfide, sodium diethyldithiocarbamate and N-phenyl-N'-(2-thiazolyl)-thiourea were applied as reference substances. The values indicated in Table 1 are the percentages in relation to the amine levels of the controls measured in the same tests (± standard error). The statistical calculations were performed on a TPA/i type computer, using Student's t test.

[2] = test system: dopamine-β-hydroxylase; assay: Determination of noradrenaline and dopamine levels of brain (dopamine-β-hydroxylase inhibiting effect); type: in vivo, male Wistar rats; conditions: i.p.
Experimental: as §1, §2, §3
(§7) Determination of the noradrenaline, dopamine, serotonine and 5-hydroxy-indolylacetic acid contents of brain
The brains were homogenized in 10 parts by volume of 0.4 n perchloric acid. The homogenized mixture was stored at -20° C. overnight, thereafter it was thawed and centrifuged as described above. A sample of the homogenized mixture corresponding to 0.5 g of brain was removed, the pH of the sample was adjusted to 8.0±0.1 with 0.1 molar tris-buffer of the above composition, and the sample was processed as described above for the determination of the noradrenaline content of heart and spleen, with the difference that 1.5 ml of 0.05 n perchloric acid were applied as eluting agent. 0.5 ml of the eluate were applied to determine the noradrenaline and dopamine contents. The measurement was performed as described above, with the difference that samples of 0.5 ml were applied for the recording of the fluorescency of noradrenaline. The residua was placed for 50 minutes into a drying oven heated to 100° C., thereafter the sample was cooled with ice water, and the fluorescency of dopamine was recorded at wavelengths of 325 nm (excitation) and 380 nm (emission).
(§8) In a further test series the serotonine and 5-hydroxy-indolylacetic acid contents were also determined, beside the determination of the noradrenaline and dopamine content, from the same sample. In this instance the brains were homogenized in 10 ml of 75% ethanol, 0.2 ml of EDTA-Na2 and 5% of ascorbic acid were added to the homogenized mixtures, and the homogenized mixtures were maintained at -20° C. overnight. The mixtures were centrifuged as described above, and 5.0 ml samples of the supernatant were removed. The samples were diluted with equal volumes of distilled water, and poured onto ion exchange columns of 0.5×1.5 cm dimensions, filled with buffered Amberlite CG-30 (200 to 400 mesh). The columns were washed with 5 ml of distilled water followed by 1.0 ml of 0.2 n hydrochloric acid, and the first effluent and the aqueous wash were collected for the determination of 5-hydroxy-indolylacetic acid. Elution was continued with further 1.2 ml of 0.2 n hydrochloric acid in order to remove noradrenaline, dopamine and serotonine. Samples of 0.3 ml were used for the determinations.
(§9) Noradrenaline and dopamine were determined by the method of Shellenberger, modified as described above, whereas serotonine was determined by the method of Curzon et al. (Brit. J. Pharmacol. 39, 653/1970/). The basic method was modified as follows: A 0.5% solution of ortho-phthal(di)aldehyde in absolute ethanol was diluted with 10 n hydrochloric acid to 50-fold of its original volume, and 0.6 ml of the resulting 0.01% ortho-phthal(di)aldehyde solution were added immediately to 0.5 ml of the serotonine-containing sample. The sample was placed into a hot water bath for 10 minutes, thereafter cooled with tap water, and the fluorescency was recorded at wavelengths of 360 nm (excitation) and 490 nm (emission).
In the tests disulfiram, 2,2-dipyridyl, bis(1-methyl-4-homopiperazinyl-thriocaronyl)-disulfide, sodium diethyldithiocarbamate and N-phenyl-N'-(2-thiazolyl)-thiourea were applied as reference substances. […]

[3] = test system: dopamine-β-hydroxylase; conditions: literature, cited from earlier work
[4] = test system: dopamine-β-hydroxylase; assay: Determination of the noradrenaline content of spleen; type: in vivo, male Wistar rats; conditions: i.p.
Experimental: as §1, §2, §3, §4, §5, §6

[5] = test system: dopamine-β-hydroxylase; assay: Determination of the adrenaline content of adrenal gland; type: in vivo, male Wistar rats; conditions: i.p.
Experimental: as §1, §2, §3
Determination of the adrenaline content of adrenal gland
The adrenal glands were freed from fat and homogenized in 3.0 ml of ice-cold 0.4 n perchloric acid. The homogenized mixtures were centrifuged for 10 minutes at 0° C. with a speed of 3200 r.p.m. using a Janetzky K-70 type centrifuge. 0.05 ml samples were taken from the supernatant, and the adrenaline level was determined directly by the method of Laverty et al. (Anal. Biochem. 22, 269/1968/).
as §6

[6] = test system: serotonine and 5-hydroxy-indolylacetic acid levels of the cerebrum; assay: Determination of serotonine and 5-hydroxy-indolylacetic acid levels of brain; type: in vivo, male Wistar rats
Experimental: as §2, §3, §7, §8, §9
5-Hydroxy-indolylacetic acid was determined from the mixture of the first effluent and the aqueous wash. 10 ml of distilled water and 0.2 ml of concentrated hydrochloric acid were added to the mixture, and the sample was poured onto a 0.8×4.0 cm column filled with Sephadex G-10. The column was washed with 15 ml of 0.1 n hydrochloric acid followed by 1.8 to 2.0 ml of 0.02 n aqueous ammonia, and then 5-hydroxyindolylacetic acid was eluted with further 2.0 ml of aqueous ammonia. 0.5 ml samples were used in the measurements, and the determination was performed according to the method of Korf et al. (Biochem. Pharmacol. 20, 659/1971/).
as §6

[7] = 100 mg/kg, 4 hours, ± standard error
[8] = 200 mg/kg, 4 hours, ± standard error
[9] = 200 mg/kg, 8 hours, ± standard error
[10] = i.p., 200 mg/kg, 4 hours, ± standard error

## c1ccc(-c2ccccn2)nc1 [2,2-D, 2,2-dipyridyl, reference compound]
[1]; 37.5 mg/kg, 4 hours
  Heart NA (noradrenaline) level, percentages in relation to the controls: 104%
[1]; 75 mg/kg, 4 hours
  Heart NA (noradrenaline) level, percentages in relation to the controls: 58%
[2]; 37.5 mg/kg, 4 hours
  Brain DA (dopamine) level, percentages in relation to the controls: 116%
  Brain NA (noradrenaline) level, percentages in relation to the controls: 79.5%
[2]; 75 mg/kg, 4 hours
  Brain DA (dopamine) level, percentages in relation to the controls: 95%
  Brain NA (noradrenaline) level, percentages in relation to the controls: 41.2%
[3]; in vitro
  dopamine-β-hydroxylase inhibition under in vitro conditions, in words: effective under in vitro conditions
[4]; 37.5 mg/kg, 4 hours
  Spleen NA (noradrenaline) level, percentages in relation to the controls: 100%
[5]; 37.5 mg/kg, 4 hours
  Adrenal gland AD (adrenaline) level, percentages in relation to the controls: 80%
[5]; 75 mg/kg, 4 hours
  Adrenal gland AD (adrenaline) level, percentages in relation to the controls: 63%
[6]; i.p., 75 mg/kg, 4 hours
  Brain SE (serotonine) level, percentages in relation to the controls: 100%

## CCCCNC1=C(C(=S)SSC(=S)C2=C(NCCCC)CCC2)CCC1 [Compound M-2, 2-(N-butyl)-amino-cyclopent-1-ene-thiocarboxylic aciddisulfide]
[1]; [7]
  Heart NA (noradrenaline) level, percentages in relation to the controls: 91.5±5.2%
[1]; [8]
  Heart NA (noradrenaline) level, percentages in relation to the controls: 108.5±9.4%
[1]; [9]
  Heart NA (noradrenaline) level, percentages in relation to the controls: 91.7±4.6%
[2]; [7]
  Brain DA (dopamine) level, percentages in relation to the controls: 118.3±5.7%
  Brain NA (noradrenaline) level, percentages in relation to the controls: 80.1±4.3%
[2]; [8]
  Brain DA (dopamine) level, percentages in relation to the controls: 94.2±7.5%
  Brain NA (noradrenaline) level, percentages in relation to the controls: 70.9±5.2%
[2]; [9]
  Brain DA (dopamine) level, percentages in relation to the controls: 91.0±12.7%
  Brain NA (noradrenaline) level, percentages in relation to the controls: 81.6±7.3%
[4]; [8]
  Spleen NA (noradrenaline) level, percentages in relation to the controls: 114.5±28.2%
[4]; [9]
  Spleen NA (noradrenaline) level, percentages in relation to the controls: 96.4±23.1%
[5]; [7]
  Adrenal gland AD (adrenaline) level, percentages in relation to the controls: 81.0±8.5%
[5]; [8]
  Adrenal gland AD (adrenaline) level, percentages in relation to the controls: 91.7±4.3%
[5]; [9]
  Adrenal gland AD (adrenaline) level, percentages in relation to the controls: 87.7±4.2%
[6]; Rattus norvegicus, ip, 200 mg/kg, 8 hours, ± standard error, read-out: Brain 5-HIAA (5-hydroxy-indolylacetic acid) level, percentages in relation to the controls
  response vs control in vivo at 200 mg/kg: 126 ± 7.1%

## S=C(Nc1ccccc1)Nc1nccs1 [Compound U-14624, N-phenyl-N'-(2-thiazolyl)-thiourea, reference compound]
[1]; [8]
  Heart NA (noradrenaline) level, percentages in relation to the controls: 106%
[2]; [8]
  Brain DA (dopamine) level, percentages in relation to the controls: 121%
  Brain NA (noradrenaline) level, percentages in relation to the controls: 31.6%
[4]; [8]
  Spleen NA (noradrenaline) level, percentages in relation to the controls: 111%
[5]; [8]
  Adrenal gland AD (adrenaline) level, percentages in relation to the controls: 72%
[6]; [10]
  Brain 5-HIAA (5-hydroxy-indolylacetic acid) level, percentages in relation to the controls: 175%
  Brain SE (serotonine) level, percentages in relation to the controls: 137%

## CCN(CC)C(=S)SSC(=S)N(CC)CC [DS, bis(diethylthiocarbamoyl)-disulfide, reference compound]
[1]; [8]
  Heart NA (noradrenaline) level, percentages in relation to the controls: 98%
[1]; 400 mg/kg, 4 hours
  Heart NA (noradrenaline) level, percentages in relation to the controls: 102%
[2]; [8]
  Brain DA (dopamine) level, percentages in relation to the controls: 111%
  Brain NA (noradrenaline) level, percentages in relation to the controls: 22.5%
[2]; 400 mg/kg, 4 hours
  Brain DA (dopamine) level, percentages in relation to the controls: 112%
  Brain NA (noradrenaline) level, percentages in relation to the controls: 24.1%
[3]
  dopamine-β-hydroxylase inhibiting effects, in words: strong dopamine-β-hydroxylase inhibiting effects
[5]; [8]
  Adrenal gland AD (adrenaline) level, percentages in relation to the controls: 52%
[5]; 400 mg/kg, 4 hours
  Adrenal gland AD (adrenaline) level, percentages in relation to the controls: 66%
[6]; [10]
  Brain SE (serotonine) level, percentages in relation to the controls: 122%
[6]; i.p., 400 mg/kg, 4 hours
  Brain SE (serotonine) level, percentages in relation to the controls: 117%
